From patent US20130197073A1, “HYPOCHOLESTEROLEMIC, ANTI-INFLAMMATORY AND ANTIEPILEPTIC NEUROPROTECTIVE COMPOUND” (NEURON BIOPHARMA, S.A., priority 2010, published 2013)

Tests used:
[1] = system: human neuroblastoma SK-N-MC cells; assay: Protection against neuronal death induced by tunicamycin (endoplasmic reticulum stress), WST-1; type: cell-based; conditions: NST0060 at 4 μM; 24 μM tunicamycin, 22 hours; significant from 1 to 40 μM
Procedure: The assay was performed on human neuroblastoma SK-N-MC cells in culture, maintained as described in section 2.1.
The inhibition caused by compound NST0060 with respect to cell death caused by treatment with tunicamycin generating endoplasmic reticulum stress was analyzed. Tunicamycin is an inhibitor of protein N-glycosylation, causing abnormal protein folding in the endoplasmic reticulum, therefore said proteins are accumulated and cause stress, resulting in cell death. These cells, not exceeding 15 passages, were seeded on 96-well plates treated for adherent cells with a cell concentration of 5×10^4 cells/well; 3 wells of the plate were seeded for each assay condition.
After 24 hours of cell incubation (at 37° C. and 5% CO2), the cell treatments were performed with 100 μl of total volume for the following conditions: • Control: culture medium (medium) • Tunicamycin (TM): medium plus 24 μM tunicamycin, causing death of 50% of the cells. • TM plus NST0060: medium plus TM (24 μM) plus NST0060 at 1, 4, 10, 40 or 100 μM
The cells were incubated (at 37° C. and 5% CO2) with these treatments for 22 hours, after which time WST-1 reagent (Roche) was added. The WST-1 test is based on the measurement of metabolic activity (method described in section 2.1).

seladin-1/DHCR24 gene = assay: Induction of seladin-1/DHCR24 gene expression, quantitative RT-PCR; type: cell-based, human; conditions: 4 μM, 24 hours, GAPDH-normalized; increase at all tested concentrations (1, 4, 10, 40 μM)
Procedure: The assay was performed on human neuroblastoma SK-N-MC cells in culture from the American Type Culture Collection (ATCC), in all cases strict rules of sterility were followed and the manipulation was performed in class II biological safety cabinets following European standard EN 12469. The cells were maintained in the following culture medium: Minimum Essential Medium Eagle (MEM) supplemented with 1 mM sodium pyruvate, 2 mM L-glutamine, 0.1 mM non-essential amino acids, 0.05 mg/ml gentamicin and 10% fetal bovine serum.
Real-time quantitative RT-PCR was used to analyze the expression of the seladin-1/DHCR24 gene. The SK-N-MC cells were treated for 24 hours in the absence (control) or presence of NST0060 at 1, 4, 10 or 40 μM. The total RNA was extracted by means of the High Pure RNA Isolation kit (Roche) and the RNA amount and quality were analyzed by means of spectrophotometry in the Infinite 200 NanoQuant system (Tecan). The RT-PCR was performed by means of two steps, first, the mRNA was transformed to cDNA using the RNA to cDNA kit (Applied Biosystem) and the gene expression was subsequently analyzed by means of TaqMan probes using the validated probes Hs00207388_m1 for seladin-1/DHCR24 and Hs99999905_m1 for GAPDH (used to normalize the results), both of which are human-specific, in the 7500 Fast Real-Time PCR System equipment (Applied Biosystem). […]

[2] = biological target: T1, 3-hydroxy-3-methylglutaryl coenzyme A reductase (HMGR) (Homo sapiens, UniProt P04035); assay: Inhibition of HMGR enzyme activity in vitro, NADPH absorbance at 340 nm; type: biochemical; conditions: active forms (activated with 0.1 N NaOH); five independent assays in duplicate
T1 sequence (P04035 340-888 limits assumed): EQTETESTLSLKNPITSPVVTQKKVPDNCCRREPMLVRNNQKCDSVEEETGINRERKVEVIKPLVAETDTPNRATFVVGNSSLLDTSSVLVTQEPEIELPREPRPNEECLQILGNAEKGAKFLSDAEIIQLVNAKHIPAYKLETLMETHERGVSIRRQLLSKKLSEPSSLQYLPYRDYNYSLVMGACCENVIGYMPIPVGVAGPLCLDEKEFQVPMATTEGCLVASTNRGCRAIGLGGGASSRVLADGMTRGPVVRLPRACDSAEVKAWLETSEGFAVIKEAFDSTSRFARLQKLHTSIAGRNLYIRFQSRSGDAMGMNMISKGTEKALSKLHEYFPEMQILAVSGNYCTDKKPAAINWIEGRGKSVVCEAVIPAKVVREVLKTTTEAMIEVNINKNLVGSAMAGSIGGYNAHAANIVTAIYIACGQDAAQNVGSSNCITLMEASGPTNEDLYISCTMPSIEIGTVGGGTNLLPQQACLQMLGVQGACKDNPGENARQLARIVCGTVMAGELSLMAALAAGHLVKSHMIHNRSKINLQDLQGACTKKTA
Procedure: The assay was carried out in a 96-well plate, with a total reaction volume of 200 μl.

male C57BL6 mice = assay: LPS model of systemic shock in mice, survival and symptomatology score; type: in vivo; conditions: LPS 8 mg/kg i.p.
Procedure: (§1) To that end an additional assay was carried out in which all the animals included were 12-week old male C57BL6 mice. The experiments were carried out strictly complying with the standard entitled Guidance on the Operation of Animals (Scientific Procedures, Act. 1986). The animals were subjected to their respective quarantine period and were treated with maximum precaution to minimize possible contaminations during treatments and handling.
(§2) The mice were split up into three experimental groups: control group (n=8); control+LPS group (n=16); NST0060+LPS group (n=16). The mice were i.p. administered two doses of 50 mg/kg of NST0060 (in its lactone form) spaced out 12 hours from one another. 0.5% methyl cellulose in physiological saline, which was administered to the mice in the control groups with the same administration regimen, was used as a vehicle. Peripheral systemic inflammation was induced one hour after the last treatment by means of a single i.p. injection of LPS at 8 mg/kg. Half the mice in which systemic shock was induced (8 animals from the control+LPS group and 8 animals from the NST0060+LPS group) were sacrificed 2 hours after the inoculation of the LPS. Blood was taken and plasma was obtained, and both were frozen. […] The concentration of the inflammatory cytokines TNFα and IL-1β was evaluated in the plasma obtained by means of ELISA.

TNFα = assay: LPS model of systemic shock in mice, plasma TNFα at 2 and 4 hours; type: in vivo; conditions: two i.p. doses of 50 mg/kg; 2 and 4 hours post-LPS
Procedure: as §1, §2

## CCCC(CCC)C(=O)O[C@H]1C[C@@H](C)C=C2C=C[C@H](C)[C@H](CC[C@@H]3C[C@@H](O)CC(=O)O3)[C@H]21 [NST0060, 2-propylpentanoic acid (1S,3R,7S,8S,8aR)-1,2,3,7,8,8a-hexahydro-3,7-dimethyl-8-[2-[(2R,4R)-tetrahydro-4-hydroxy-6-oxo-2H-pyran-2-yl]ethyl]-1-naphthalenyl ester]
[1]
  protection against cell death caused by TM: 42%
seladin-1/DHCR24 gene
  increase of seladin-1/DHCR24 gene expression with respect to the control: 2.5 fold
[2]
  IC50: 126 ± 34.6 nM
Male C57BL6 mice; two i.p. doses of 50 mg/kg (lactone form), observed 15 days
  survival rate / mortality induced by LPS: mortality induced by LPS is prevented in a statistically significant manner
Male C57BL6 mice; two i.p. doses of 50 mg/kg, statistically significant at 24 hours
  score associated with the symptomatology (0 to 3): lower severity of the systemic shock process
TNFα
  plasma concentration of TNFα (inflammatory response): decrease in the inflammatory response at both 2 and 4 hours post-LPS
